The subject of assay [1] is cholesterol synthesis in rat liver. As to the kind of experiment: Ex-Vivo Fasted (cholesterol synthesis from [14C] sodium acetate in liver slices of orally dosed fasted rats). The note with it: 1 mg/kg oral in 0.5% methocel, rats fasted 16 hours, livers removed after one hour. The method, then: The second method (designated Ex-Vivo Fasted) used was as follows. Rats of 170-210 g were maintained on a low cholesterol diet for one week prior to use. Drugs (identified in Table I) were given orally in 0.5% methocel to fasted (fasted for 16 hours) rats. After one hour the rats were decapitated and their livers removed and transferred to chilled oxygenated Kreb's-Ringer-bicarbonate buffer (pH 7.4). The livers were then chopped into 0.5 mm slices using a McIlwain tissue chopper, and were suspended in the same buffer. Aliquots of the suspension containing 100 mg tissue were pipetted to culture tubes which contained [^14 C] sodium acetate (2μ Ci, 1 mM). The tubes were gassed with 95% O2 /5 % CO2, capped and incubated at 37° C. in a shaking water bath at 150 oscillation/min. for two hours. The final assay volume was 1.0 ml. After incubation the reaction was stopped by the addition of 1.0 ml of 15% KOH in ethanol, and the internal standard ^3 H-cholesterol was added. The tubes were recapped and the samples were saponified at 75° C. for two hours with periodic mixing. Subsequently an aliquot was removed for protein analysis using Bio-Rad's standard kit, and the remainder of the saponified samples was extracted with 10 ml of petroleum ether for 30 minutes. […] After visualization with iodine the cholesterol spots were cut and counted with liquid scintillation fluid.

A further assay concerns the target HMG-CoA reductase. As to the kind of experiment: HMGR Screen (inhibition of solubilized rat liver HMG-CoA reductase, [14C] HMG-CoA). The assay is classed as biochemical. The conditions noted are these: solubilized rat liver microsomal enzyme; 20 μM HMG-CoA; 37° C.; pH 7.0; read-out: IC50 (Micromoles per liter), HMGR Screen. The method, then: The first method used (designated HMGR Screen) was as follows. Male rats were acclimated to an alternate 12 hour light-dark cycle for a period of 2-3 weeks. The animals, weighing 180-230 g, were fed ad libitum a rat chow containing 2% cholestyramine for 5 days prior to sacrifice at the mid-dark period. Liver microsomes were prepared and HMGR enzyme was solubilized from the microsomes by freeze-thaw manipulation in high ionic strength buffer. The enzyme preparation was stored at -80° C. in 300 μl portion samples. Prior to use, the enzyme was activated at 37° C. for 30 minutes in a reaction mixture. The reaction mixture contained in a volume of 240 μl:0.14M potassium phosphate buffer (pH 7.0); 0.18M KCl; 3.5 mM EDTA; 10 mM dithiothreitol; 0.1 mg/ml BSA; 30,000 cpm of [^14 C] HMG-CoA; 20 μM HMG-CoA, and 200 μg of solubilized enzyme with and without inhibitors (in 10 μDMSO). After 5 minutes incubation at 37° C. the reaction was initiated with 0.2 mM NADPH. The final assay volume was 300 μl. The reaction then was terminated with 100 μl of 1N HCl. After an additional incubation for 15 minutes at 37° C. to allow for complete lactonization of the product, the mixture was diluted with 3 ml GDW. […] After the addition of 10 ml of Aquasol , radioactivities of the samples were measured in a scintillation counter.

Broadly, the inhibition is the drop in the measured response relative to a control, in per cent. One may read the IC50 as the concentration that inhibits the measured activity by half.

Consider `O=C(O)C[C@H](O)C[C@H](O)/C=C/C1=C(c2ccc(F)cc2)C=C(c2ccccc2)C12CCCC2` (relative stereo), for which testing at 1 mg/kg in assay [1] gave an inhibition of 65 ± 4%. As to `O=C1C[C@@H](O)C[C@H](/C=C/C2=C(c3ccc(F)cc3)C=C(c3ccccc3)C23CCCC3)O1` (relative stereo) [Compound of Example I Step 9, Trans-(E)-6-[2-[2-(4-fluorophenyl)-4-phenyl-spiro[4,4]-nona-1,3-dien-1-yl]ethenyl]-3,4,5,6-tetrahydro-4-hydroxy-2H-pyran-2-one], the half-maximal inhibitory concentration (IC50) on HMG-CoA reductase is 0.9 nM. Take `O=C1C[C@@H](O)C[C@H](/C=C/C2=C(c3ccc(F)cc3)C=C(c3ccccc3)C23CCCC3)O1` (relative stereo) [Lactone Form of Compound of Example I Step 9] [Trans-(E)-6-[2-[2-(4-fluorophenyl)-4-phenyl-spiro[4,4]-nona-1,3-dien-1-yl]ethenyl]-3,4,5,6-tetrahydro-4-hydroxy-2H-pyran-2-one]: at HMG-CoA reductase, the IC50 stood at 70 nM.

Source of the values: US5001128A, “HMG-COA reductase inhibitors” (Rhone-Poulenc Rorer Pharmaceuticals Inc., priority 1989, dated 1991).
